Molecules are shown by their SMILES.

Consider 1 compound from US6225321A (priority 1997, dated 2001).

The nature of the data set: Half-life / conversion of dinalbuphine sebacoyl ester in human blood. The data set is classed as in vitro ADME. The following applies: for Elimination half-life: n = 3, mean ± S.E. The protocol: IV. For Human Experiments
(a) Dinalbuphine sebacoyl ester was dissolved in acetonitrile, the concentration was 10 mg/ml.
(b) 250 ml of whole blood collected from rats given dinalbuphine sebacoyl ester, and anticoagulant was added.

Regarding `O=C(CCCCCCCCC(=O)Oc1ccc2c3c1O[C@H]1[C@@H](O)CC[C@@]4(O)[C@@H](C2)N(CC2CCC2)CC[C@]314)Oc1ccc2c3c1O[C@H]1[C@@H](O)CC[C@@]4(O)[C@@H](C2)N(CC2CCC2)CC[C@]314` [sebacoyl dinalbuphine ester], the Elimination half-life by setting is: (human plasma) 9.0 ± 0.4 min; (human red blood cell) 7.7 ± 0.4 min; (human whole blood) 8.8 ± 0.4 min. Moreover, the “converted time of 90% into Nalbuphine” value (humans) was 30 min. The compound further showed a half life (humans, HPLC) of 9.0 min.
